Data: patent US6153640A, “Benzo[3,4]cyclobuta[1,2-c]pyrrole compounds” (Adir et Compagnie, priority 1999, dated 2000)

Columns and labels:
[1] = test system: levels of serotonin, dopamine and noradrenaline in cingulate frontal cortex; test: Microdialysis experiment in the rat (frontal cortex); type: in vivo; settings: 10 mg/kg subcutaneous, baseline defined as 0%
Protocol: Rats are anaesthetised with pentobarbital (60 mg/kg i.p.). They are placed in a Kopf stereotaxic device and the cannula guide is implanted in the cingulate frontal cortex in accordance with the coordinates described in the Paxinos and Watson atlas (1982) as follows: AP=+2.2; L=±0.6; DV=-0.2. The rats are placed in separate cages and are not used in dialysis until 5 days later. […] The probe is perfused at a flow rate of 1 μl/min. with a solution of 147.2 mM NaCl, 4 mM KCl and 2.3 mM CaCl2 adjusted to pH 7.3 with a phosphate buffer (0.1 M). Two hours after implantation, samples are collected every 20 minutes for 4 hours. Three baseline samples are taken before administration of the products to be tested. The rats are left in their individual cages for the whole of the experiment. When the experiment is finished, the rats are decapitated and the brain is removed and frozen in isopentane. Sections of a thickness of 100 μm are cut and stained with cresyl violet, which allows verification of the location of the probes. The simultaneous quantification of dopamine, norepinephrine and serotonin is carried out as follows: 20 μl of dialysis sample are diluted with 20 μl of mobile phase (NaH2 PO4 : 75 mM; EDTA: 20 μM; sodium 1-decanesulphonate: 1 mM; methanol: 17.5%; triethylamine: 0.01%; pH: 5.70) and 33 μl are analysed by HPLC with a reverse phase column thermostatically maintained at 45° C. and are quantified by means of a coulometric detector. The potential of the first electrode of the detector is set at -90 mV (reduction) and the second at +280 mV (oxidation). The mobile phase is injected with a pump at a flow rate of 2 ml/min. The sensitivity limits for dopamine, norepinephrine and serotonin are 0.55 fmole per sample. All the products of the invention are injected subcutaneously in a volume of 1.0 ml/kg. The products are dissolved in distilled water to which a few drops of lactic acid have been added if necessary.

serotonin reuptake site = target: T1, serotonin reuptake site (Rattus norvegicus, UniProt P31652); test: Affinity for serotonin reuptake sites ([3H]-paroxetine competition binding); settings: [3H]-paroxetine 1.0 nM, rat frontal cortex membranes, 2 hours at 25° C., pH 7.4; read-out: pKi (-log Ki), affinity for serotonin reuptake sites (converted)
T1 construct: The membranes are prepared from rat frontal cortex; from tissue; host or cells: rat frontal cortex membranes
T1 sequence (P31652 whole entry): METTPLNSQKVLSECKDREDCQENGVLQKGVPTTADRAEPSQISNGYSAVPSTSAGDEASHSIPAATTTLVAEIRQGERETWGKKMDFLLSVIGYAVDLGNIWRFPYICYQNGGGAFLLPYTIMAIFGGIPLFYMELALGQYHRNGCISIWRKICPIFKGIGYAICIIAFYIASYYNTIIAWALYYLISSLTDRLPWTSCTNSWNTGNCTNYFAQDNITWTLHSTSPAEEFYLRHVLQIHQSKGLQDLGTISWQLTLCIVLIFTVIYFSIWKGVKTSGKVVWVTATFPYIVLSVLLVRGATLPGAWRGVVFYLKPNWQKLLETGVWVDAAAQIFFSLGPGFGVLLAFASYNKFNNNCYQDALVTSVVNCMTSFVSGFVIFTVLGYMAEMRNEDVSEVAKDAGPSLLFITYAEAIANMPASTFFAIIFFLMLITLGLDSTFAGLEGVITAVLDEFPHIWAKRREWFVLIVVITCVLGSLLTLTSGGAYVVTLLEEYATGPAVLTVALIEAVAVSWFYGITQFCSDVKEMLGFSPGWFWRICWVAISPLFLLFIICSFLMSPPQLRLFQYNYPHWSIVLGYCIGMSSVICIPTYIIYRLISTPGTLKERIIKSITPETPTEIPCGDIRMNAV
Protocol: The incubation buffer contains […] TRIS-HCl (pH 7.4), 120 mM NaCl and 5 mM KCl. The non-specific binding is determined using 10 μM citalopram. At the end of the incubation, the incubation medium is filtered and washed three times with 5 ml of cooled buffer. The radioactivity retained on the filters is determined by liquid scintillation counting. The binding isotherms are analysed by non-linear regression to determine the IC50 values. Those values are converted into a dissociation constant (Ki) using the Cheng-Prusoff equation: […]
The results are expressed in pKi (-log Ki).

male CD mice = test: Test of aggressiveness in isolated mice; type: in vivo; settings: Mus musculus, ip, 0.5 h; i.p.; treatment 30 minutes before pairing; 3 minutes observation; read-out: Inhibitory Dose 50 of the number or duration of the attacks
Source text: This test allows the evaluation of the intraspecies anti-aggressive activity of a product in mice that have been kept in isolation for several months.
The test uses male CD mice (Charles River) weighing from 22 to 25 g when they arrive at the animal house. On their arrival, the animals are isolated in individual cages made of opaque black polycarbonate (23×14×13 cm) with a grill lid, and are housed for a prolonged period (approximately six months) in the experimentation room.
The selection of aggressive pairs of mice that will be used for an extended period in the study commences after the animals have been isolated for one month. Once or twice per week a mouse from another cage (intruder) is placed in the cage of a (resident) mouse and the two animals are observed to see if they attack one another (sniffing, pursuing, nicking, biting) during that trial. At the end of the trial (maximum duration 10 minutes), each mouse is isolated again in its own cage. If attacks have occurred, the same pair will be tested again in the next trial; if there have been no attacks, each mouse of that pair will be placed in the presence of another mouse in the subsequent trial. […]
The test takes place once a week. […] The latent period (in seconds) of the first attack and the number and total duration (in seconds) of the attacks are recorded. […]

Structure (SMILES): c1ccc2c(c1)[C@@H]1CNC[C@]21COc1ccc2c(c1)OCO2 (relative stereo) [Example 1, cis-3a-[(3,4-Methylenedioxyphenoxy)methyl]-2,3,3a,7b-tetrahydro-1H-benzo[3,4]cyclobuta[1,2-c]pyrrole]
- increase in the level of dopamine, maximum % of the effect compared with the baseline level [1]: 54.8%±6.4
- increase in the level of noradrenaline, maximum % of the effect compared with the baseline level [1]: 96.4%±7.8
- increase in the level of serotonin, maximum % of the effect compared with the baseline level [1]: 226.3%±20.1
- Ki (serotonin reuptake site): 12.6 nM
- ED50 (male CD mice): < 5 mg/kg
